Read-outs that look alike come from different tables or passages of the source.
Legend:
[1] = tested on: NF-κB pathway (SEAP) in THP1-Dual cells; assay: THP-1 Dual cell SEAP assay (L18-MDP stimulated); format: cell-based; settings: Homo sapiens, THP1-Dual, read-out: NFkB THP1 IC50
[2] = target: GST-RIPK2 fusion protein (human RIPK2 amino acids 1-310) (Homo sapiens (Human), UniProt O43353); assay: RIPK2 binding competition assay (TR-FRET, Tracer 199)
[3] = read-out: RIPK2 IC50, RIPK2 binding competition assay

Chain of GST-RIPK2 fusion protein (human RIPK2 amino acids 1-310) (O43353 1-310): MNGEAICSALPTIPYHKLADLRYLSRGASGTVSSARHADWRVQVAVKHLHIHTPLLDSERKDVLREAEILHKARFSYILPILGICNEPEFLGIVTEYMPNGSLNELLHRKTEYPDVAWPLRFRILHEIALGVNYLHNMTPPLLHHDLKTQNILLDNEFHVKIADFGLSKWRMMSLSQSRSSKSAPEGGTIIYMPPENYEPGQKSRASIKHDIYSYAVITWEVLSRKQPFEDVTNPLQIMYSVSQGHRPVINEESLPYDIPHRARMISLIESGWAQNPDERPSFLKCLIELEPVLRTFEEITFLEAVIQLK

SMILES	IC50 [1] [nM]	IC50 [2, 3] [nM]	IC50 [2] [nM]
COc1cc2ncc(-c3cnc(N)cn3)n2cc1S(=O)(=O)C(C)(C)C [Example 103, 5-(6-(tert-butylsulfonyl)-7-methoxyimidazo[1,2-a]pyridin-3-yl)pyrazin-2-amine]	> 1000	> 20	
CCCS(=O)(=O)Nc1cc(-c2cnc3cc(OC)c(S(=O)(=O)C(C)(C)C)cn23)cc(C)c1F [Example 290, N-(5-(6-(tert-butylsulfonyl)-7-methoxyimidazo[1,2-a]pyridin-3-yl)-2-fluoro-3-methylphenyl)propane-1-sulfonamide]	> 1000		2.5 to 20
CCCS(=O)(=O)Nc1cc(-c2cnc3cc(OC)c(S(=O)(=O)C(C)(C)C)cn23)cnc1OC [Example 265, N-(5-(6-(tert-butylsulfonyl)-7-methoxyimidazo[1,2-a]pyridin-3-yl)-2-methoxypyridin-3-yl)propane-1-sulfonamide]	50 to 250		2.5 to 20
CCCS(=O)(=O)Nc1cc(-c2cnc3cc(OC)c(S(=O)(=O)C(C)(C)C)cn23)cnc1N [Example 253, N-(2-amino-5-(6-(tert-butylsulfonyl)-7-methoxyimidazo[1,2-a]pyridin-3-yl)pyridin-3-yl)propane-1-sulfonamide]	> 1000	> 20	
COc1cc2ncc(-c3cc(F)nc(N4CCC(O)CC4)c3)n2cc1S(=O)(=O)C(C)(C)C [Example 207, 1-(4-(6-(tert-butylsulfonyl)-7-methoxyimidazo[1,2-a]pyridin-3-yl)-6-fluoropyridin-2-yl)piperidin-4-ol]	< 50		1 to 2.5
COc1cc2ncc(-c3cc(N)c(OC(F)F)c(F)c3)n2cc1S(=O)(=O)C(C)(C)C [Example 65, 5-(6-(tert-butylsulfonyl)-7-methoxyimidazo[1,2-a]pyridin-3-yl)-2-(difluoromethoxy)-3-fluoroaniline]	50 to 250		1 to 2.5
COc1cc2ncc(-c3cc(F)nc(NCCCO)c3)n2cc1CO [Example 250, 3-({6-fluoro-4-[6-(hydroxymethyl)-7-methoxyimidazo[1,2-a]pyridin-3-yl]pyridin-2-yl}amino)propan-1-ol]	50 to 250		2.5 to 20
COc1ccc(CNc2cc(-c3cnc4cc(OC)c(S(=O)(=O)C(C)(C)C)cn34)cc(F)n2)cc1 [Example 216]	50 to 250	< 1	
CCCS(=O)(=O)Nc1cc(-c2cnc3cc(OC)c(S(=O)(=O)C(C)(C)C)cn23)ccc1OC [Example 130, N-{2-methoxy-5-[7-methoxy-6-(2-methylpropane-2-sulfonyl)imidazo[1,2-a]pyridin-3-yl]phenyl}propane-1-sulfonamide]	250 to 1000		1 to 2.5
COCc1cc(N)cc(-c2cnc3cc(OC)c(S(=O)(=O)C(C)(C)C)cn23)c1 [Example 49, 3-(6-(tert-butylsulfonyl)-7-methoxyimidazo[1,2-a]pyridin-3-yl)-5-(methoxymethyl)aniline]	250 to 1000	> 20	
COc1cc2ncc(-c3cc(F)c(N)c(C)c3F)n2cc1S(=O)(=O)C(C)(C)C [Example 111, 4-(6-(tert-butylsulfonyl)-7-methoxyimidazo[1,2-a]pyridin-3-yl)-3,6-difluoro-2-methylaniline]	50 to 250		1 to 2.5
COc1cc2ncc(-c3cc(F)nc(NCc4ccn(C)c(=O)c4)c3)n2cc1S(=O)(=O)C(C)(C)C [Example 196, 4-(((4-(6-(tert-butylsulfonyl)-7-methoxyimidazo[1,2-a]pyridin-3-yl)-6-fluoropyridin-2-yl)amino)methyl)-1-methylpyridin-2(1H)-one]	< 50		1 to 2.5
COc1cn2ncc(-c3cc(Cl)c(N)nc3F)c2cc1S(=O)(=O)C(C)(C)C [Example 105, 5-(5-(tert-butylsulfonyl)-6-methoxypyrazolo[1,5-a]pyridin-3-yl)-3-chloro-6-fluoropyridin-2-amine]	50 to 250		2.5 to 20
COc1ccc(CNc2cc(-c3cnc4ccc(S(=O)(=O)C(C)(C)C)cn34)cc(F)n2)cc1 [Example 168, 4-(6-(tert-butylsulfonyl)imidazo[1,2-a]pyridin-3-yl)-6-fluoro-N-(4-methoxybenzyl)pyridin-2-amine]	250 to 1000		1 to 2.5
COc1cc2ncc(-c3cc(F)c(OC)c(CCO)c3)n2cc1S(=O)(=O)C(C)(C)C [Example 59, 2-(5-(6-(tert-butylsulfonyl)-7-methoxyimidazo[1,2-a]pyridin-3-yl)-3-fluoro-2-methoxyphenyl)ethan-1-ol]	250 to 1000		2.5 to 20
COc1cc2ncc(-c3cc(N)c(=O)n(C(F)F)c3)n2cc1S(=O)(=O)C(C)(C)C [Example 328, 3-amino-5-(6-(tert-butylsulfonyl)-7-methoxyimidazo[1,2-a]pyridin-3-yl)-1-(difluoromethyl) pyridin-2(1H)-one]	> 1000	> 20	
COc1cc2ncc(-c3cc(F)nc(NCCC4(O)CC4)c3)n2cc1S(=O)(=O)C(C)(C)C [Example 198, 1-(2-((4-(6-(tert-butylsulfonyl)-7-methoxyimidazo[1,2-a]pyridin-3-yl)-6-fluoropyridin-2-yl)amino)ethyl)cyclo-propan-1-ol]	< 50	< 1	
CCCS(=O)(=O)Nc1cc(-c2cnc3cc(OC)c(S(=O)(=O)C(C)(C)C)cn23)cc(F)n1 [Example 304, N-(4-(6-(tert-butylsulfonyl)-7-methoxyimidazo[1,2-a]pyridin-3-yl)-6-fluoropyridin-2-yl)propane-1-sulfonamide]	> 1000	> 20	
